Measured values from US10201558B2, “Compositions of selenoorganic compounds and methods of use thereof” (Alltech, Inc., priority 2014, dated 2019).
Entries after “also recorded” stand apart in the source; their conditions may differ.

Legend:
PEN2 = assay: Western blot of PEN2 protein in IMR-32 cells; format: cell-based, human; details: 150 ppb, 24 hours
Experimental: IMR-32 cells were seeded on 6-well plates and then treated with control and various compounds for 6 hours and 24 hours, as described above. After treatments, cells were rinsed with ice-cold PBS and lysed in ice-cold RIPA buffer containing complete proteinase and phosphatase inhibitors (Thermo-Fisher Scientific, Waltham, Mass.) on ice for 30 min Cell lysates were collected using a cell scraper and transfer pipette and then centrifuged at 12000×g for 30 min at 4° C. to remove the DNA pellet and obtain the protein extract. Protein levels in the supernatant of these cell lysates were determined using the Pierce Micro-BCA protein assay kit (Thermo Scientific-Piece Biotechnology, Rockford, Ill.) according to the manufacturer's protocol […]
Positive signals on the membrane blots were detected using Amersham's enhanced chemiluminescence (ECL) Western Blotting Prime Detection reagents (GE healthcare Lifescience, Pittsburgh, Pa.). Images of these luminescence signals on the membrane blots were captured using the LI-COR Odyssey Fc Image system (Lincoln, Nebr.). […] Protein band densities in the Western blots were determined using the Li—COR Image studio software or NIH ImageJ software, and then normalized by ACTB protein level in each sample. […]

[1] = test system: phosphorylated Foxo4 (threonine 28); assay: Western blot of phosphorylated Foxo4 in APP/PS1 mouse brains; format: in vivo; details: APP/PS1 mouse brain, Compound C diet vs control diet
Experimental: Male APPΔNLh/ΔNLh×PS1P246 L/246 L knock-in model mice of Alzheimer's disease (abbreviated APP/PS1) were genotyped using standard primers for human APP (Amyloid Precursor Protein) and human PS1 (PSEN1).
At 12 months of age, the mice were euthanized and the brains quickly removed, the cerebellum isolated and the hemispheres snap-frozen in liquid nitrogen and then stored at −80° C. for further immunohistochemistry (IHC), protein and RNA analysis. All procedures conducted on these animal studies were pre-approved by the University of Kentucky IACUC committee.
Frozen hemispheres of control- and Compound C-treated APP/PS1 mice were weighed and homogenized in PBS buffer, and then subsequently extracted with RIPA buffer (Sigma) containing complete proteinase and phosphatase inhibitors (Fisher Scientific). Protein levels in the samples were determined by micro-BCA protein analysis according to the manufacturer's protocol. […] Positive signals on the membrane blots were detected using Amersham's enhanced chemiluminescence Western Blotting Prime Detection reagents (GE healthcare Lifescience, Pittsburgh, Pa.). Images of these luminescence signals on the membrane blots were captured using the LI-COR Odyssey Fc Image system (Lincoln, Nebr.). […]

C[Se]C[C@H]1O[C@@H](n2cnc3c(N)ncnc32)C(O)C1O (stereo in doubt) [Compound C, 5′-deoxy-5′-methylselenoadenosine]
PEN2 protein levels (PEN2): but not PEN2 proteins, were reduced | phosphorylated Foxo4 at threonine 28 (pFoxo4) protein [1]: inhibition; also recorded: less abundant; also recorded: significantly decreased
